Tests used:
[1] = molecular target: T1, KCNQ2/3 potassium ion channel (Homo sapiens, UniProt O43525+O43526); assay: KCNQ2/3 potassium ion channel activation assay (whole-cell patch clamp, hKCNQ-CHO cells); type: cell-based; settings: read-out: Enhancment % (current enhancement multiple); for activation at 0.05 µM: test concentration 0.05 μM; for activation at 3 µM: test concentration 3 μM
T1 construct: expressed in transfected cells; host or cells: CHO cells (hKCNQ-CHO)
Procedure: Example 64: KCNQ2/3 Potassium Ion Channel Activation Assay
(§1) hKCNQ-CHO cells were cultured at 37° C. in a humidified environment of 5% CO2.
• 2.1. Extracellular fluid (mM): NaCl 145, KCl 4, CaCl2 2, MgCl2 1, Glucose 10, HEPES 10. The pH value of the extracellular fluid was adjusted to 7.4 with NaOH, and the osmotic pressure was adjusted to about 295 mOsm. • 2.2. Intracellular fluid (mM (mmol/L)): KOH 31.25, KCl 120, EGTA 10, MgCl2 1.75, CaCl2 5.374, HEPES 10, Na-ATP 4. The pH value of the intracellular fluid was adjusted to 7.4 with HCl, and the osmotic pressure was adjusted to about 285 mOsm. • 2.3. The extracellular fluid should be prepared once a week, and the intracellular fluid should be stored at −20° C. after preparation.
(§2) The model positive reference compound Retigabine (RTG) was dissolved with 100% DMSO and configured as a 10 mM working solution. The test compounds were dissolved with 100% DMSO and configured as a 10 mM working solution. The final concentration of DMSO in the test solution should be less than 0.3%.
(§3) Whole-cell patch clamp was performed at room temperature. The electrical signals recorded with the EPC 10 USB amplifier (HEKA Elektronik, Germany) were filtered by a 3 kHz low-pass filter, and finally recorded in PatchMaster 2×90.5 software (HEKA Elektronik, Germany). At this step, the quality control standard was that the cell high-resistance sealing was greater than 500 MOhms, and the detection current was greater than 0.4 nA.
(§4) The recording electrodes were pulled out and polished with a vertical puller (NARISHIGE PC-10, Japan) using a borosilicate glass capillary (GC150tF-10, Harvard Apparatus Co., UK). At this step, the quality control standard was that the electrode resistance was between 2 MΩ and 5 MΩ.
(§5) During the recording process of the whole-cell patch clamp, a continuous perfusion system (BT100-2J, LongerPump, China) was used to continuously perfuse the extracellular fluid. The perfusion system was installed on the stage of an upright microscope (FN-S2N, Nikon, Japan), and the perfusion head was manually positioned under the microscope.
The voltage command for detecting the amplitude of hKCNQ current was as follows: the cell stepped from the clamping potential of −80 mV to −30 mV, and held for 1500 ms; and then the clamping voltage was lowered to −120 my and held for 500 ms; finally, the voltage returned to the clamping potential of −80 mV. The detection voltage command was repeated every 15,000 milliseconds, and the command was continuously executed during the compound test. The quality control standard for compound action stability was the current amplitude under 5 consecutive voltage commands, and the coefficient of variation of the current amplitude was <5%.
Data analysis was performed using PatchMaster 2×90.5 software (HEKA Elektronik, Germany) and Excel 2013 (Microsoft, USA) software. For each cell's patch clamp recording, the amplitude of the hKCNQ channel current (Itest) corresponding to the test compound concentration should be obtained. The enhanced channel current was obtained by subtracting the cell's original channel current (Icontrol) from Itest and dividing by Icontrol to obtain the current enhancement multiple. That is, the current enhancement multiple (Enhancment %)=(Itest −Icontrol)/Icontrol[…].

[2] = molecular target: T2, KCNQ2/3 (Homo sapiens, UniProt O43525+O43526); assay: Half-maximal activation voltage left shift assay (whole-cell patch clamp, hKCNQ-CHO cells); type: cell-based
T2 construct: expressed in transfected cells; host or cells: CHO cells (hKCNQ-CHO)
Procedure: Example 65: Half-Maximal Activation Voltage Left Shift Assay
as §1
• a) Extracellular fluid (mM): NaCl 145, KCl 4, CaCl2 2, MgCl2 1, Glucose 10, HEPES 10. The pH value of the extracellular fluid was adjusted to 7.4 with NaOH, and the osmotic pressure was adjusted to about 295 mOsm. • b) Intracellular fluid (mM): KOH 31.25, KCl 120, EGTA 10, MgCl2 1.75, CaCl2 5.374, HEPES 10, Na-ATP 4. The pH value of the intracellular fluid was adjusted to 7.4 with HCl, and the osmotic pressure was adjusted to about 285 mOsm. • c) The extracellular fluid should be prepared once a week, and the intracellular fluid should be aliquoted and stored at −20° C. after preparation.
as §2, §3, §4, §5
The voltage command for detecting the amplitude of hKCNQ current was as follows: the cell was clamped from a potential of −80 mV, stepped to −120 mV, and then clamped continuously at increasing voltages of 10 mV per sweep until +60 mV, held for 1500 ms; and then the clamping voltage was lowered to −120 my and held for 500 ms; finally, the voltage returned to the clamping potential of −80 mV. The detection voltage command was repeated every 15,000 milliseconds, and the command was continuously executed during the compound test. The half-maximal voltage of the cell's hKCNQ was obtained by nonlinear fitting of the current amplitude at different clamping potentials (−120 mV to +60 mV).
Data analysis was performed using PatchMaster 2×90.5 software (HEKA Elektronik, Germany) and Excel 2013 (Microsoft, USA) software. For each cell's patch clamp recording, the half-maximal voltage (V½-test) of hKCNQ corresponding to the test compound concentration should be obtained. The left-shifted half-maximal voltage value ΔV½ (V1/2 Shift (mV)) was obtained by subtracting the half-maximal voltage of hKCNQ before compound action (V½-control) from V½-test.

[3] = tested on: MES-induced epilepsy in mice; assay: MES mouse epilepsy model; type: in vivo; settings: 5 mpk, electrical stimulation 30 minutes after administration
Procedure: Example 67: MES Mouse Epilepsy Model
• 1. The mice (10 mice per group) were transferred to the operating room to adapt to the environment 30 minutes before the experiment. • 2. The mice were administered the test compounds or positive drug (Valproate) at a specific time point. 30 minutes after the administration of Valproate or 30 minutes after the administration of the test compounds, electrical stimulation was given with ear electrodes. The stimulation parameters were a square wave with a total duration of 0.8 seconds, a frequency of 50 Hz, and an amplitude of 50 mA with an interval of 10 msec. • 3. The number and duration of hind limb tonic extension of the animal within 1 minute after the completion of the electrical stimulation was recorded, and the possible death and time of death were also recorded. • 4. After administration, the possible side effects induced by the drug were observed and recorded, and the side effects are divided into four levels: • None: Normal • Mild sedation • Moderate sedation • Severe sedation

[4] = Blood-brain barrier permeability assay in mice (brain concentration after intragastric administration); type: in vivo; settings: 5 mg/kg, brain tissue homogenate
Procedure: Administration Dosage of 5 mg/kg
The drug was prepared in proportion (solvent: 5% DMSO+5% Solutol+90% normal saline) to make a solution with a concentration of 0.5 mg/mL, and the mice were subjected to intragastric administration at 0.1 mL/10 g, with 3 mice per group in parallel.
After the mice were administered, the mice were anesthetized and perfused with normal saline through the heart, dissected to collect the brain tissue. The brain tissue was washed with normal saline, dried, weighed, and transferred to a 2 mL EP tube, added with normal saline according to brain tissue: normal saline=1:1 (g/mL). 3 steel balls were put in each tube on a tissue grinder, and the tissue mixture was homogenized at 60 HZ for 60 s, centrifuged at 15000 rpm at 4° C. for 10 minutes, and the supernatant was taken, which was the brain tissue homogenate.
The drug stock solution (0.5 mg/mL) was taken and diluted with acetonitrile to form standard curve working solutions with concentrations of 50, 100, 200, 500, 1000, 2000, 5000, 10000, and 20000 ng/mL, and quality control working solutions with concentrations of 100, 2000, and 10000 ng/mL. 47.5 μL of blank matrix was taken respectively, and 2.5 μL of standard curve working solution and 2.5 μL of quality control working solution were added thereto to prepare standard curve samples with concentrations of 2.5, 5, 10, 25, 50, 100, 250, 500, and 1000 ng/mL and quality control samples with concentrations of 5, 100, and 500 ng/mL. 200 μL of acetonitrile (containing the internal standard of 5 ng/mL of Loratadine) was added thereto respectively, subjected to vortex oscillation for 3 minutes, centrifuged at 15,000 rpm and 4° C. for 10 minutes, and the supernatant was taken and analyzed by LC-MS/MS to obtain a standard curve.
50 μL of brain tissue homogenate sample was taken, added with 200 μL of acetonitrile (containing the internal standard of 5 ng/mL of Loratadine), subjected to vortex oscillation for 3 minutes, centrifuged at 15,000 rpm and 4° C. for 10 minutes, and the supernatant was taken for LC-MS/MS analysis. The standard curve was combined with the analysis to obtain the corresponding concentrations in the brain.

Compound	activation at 0.05 µM [1]	activation at 3 µM [1]	V1/2 Shift (mV) ([2]; test concentration 50 nM)	V1/2 Shift (mV) ([2]; test concentration 300 nM)	Concentrations in the brain [4]	Protection rate for tonic extension [3]
CCC(C)Oc1ccc2c(c1)CCCN(c1cc(C)c(NC(=O)CC(C)(C)C)c(C)c1)C2 (stereo not drawn) [Compound 004, N-(4-(7-(sec-butoxy)-1,3,4,5-tetrahydro-2H-benzo[c]azepin-2-yl)-2,6-dimethylphenyl)-3,3-dimethylbutanamide]	< 50%	> 100%	−11.76 mV	−23.56 mV	–	–
Cc1cc(N2CCCc3cc(O[C@@H](C)C(F)(F)F)ccc3C2)cc(C)c1NC(=O)CC(C)(C)C [Compound 033, (S)—N-(2,6-dimethyl-4-(7-((1,1,1-trifluoropropan-2-yl)oxy)-1,3,4,5-tetrahydro-2H-benzo[c]azepin-2-yl)phenyl)-3,3-dimethylbutanamide]	–	50 to 100%	−44.25 mV	–	–	100%
Cc1cc(N2CCCc3cc(OC4CCCC4)ccc3C2)cc(C)c1NC(=O)CC(C)(C)C [Compound 011, N-(4-(7-(cyclopentyloxy)-1,3,4,5-tetrahydro-2H-benzo[c]azepin-2-yl)-2,6-dimethylphenyl)-3,3-dimethylbutanamide]	> 100%	> 100%	−2.92 mV	−21.98 mV	–	90%
Cc1cc(N2CCc3cc(F)ccc3C2)cc(C)c1NC(=O)CC(C)(C)C [Xen-1101, reference compound]	–	–	−5.48 mV	−13.33 mV	90.9 ng/g	–
Cc1cc(N2CCCc3cc(OC(C)C)c(F)cc3C2)cc(C)c1NC(=O)CC(C)(C)C [Compound 035, N-(4-(8-fluoro-7-isopropoxy-1,3,4,5-tetrahydro-2H-benzo[c]azepin-2-yl)-2,6-dimethylphenyl)-3,3-dimethylbutanamide]	50 to 100%	> 100%	−16.46 mV	–	257 ng/g	100%

Second part, led by results:

activation at 0.05 µM [1]	activation at 3 µM [1]	V1/2 Shift (mV) ([2]; test concentration 50 nM)	V1/2 Shift (mV) ([2]; test concentration 300 nM)	Concentrations in the brain [4]	Compound	Protection rate for tonic extension [3]
50 to 100%	> 100%	−23.38 mV	−47.60 mV	166.1 ng/g	Cc1cc(N2CCCc3cc(OC(C)C(F)(F)F)ccc3C2)cc(C)c1NC(=O)CC(C)(C)C (stereo not drawn) [Compound 008, N-(2,6-dimethyl-4-(7-((1,1,1-trifluoropropan-2-yl)oxy)-1,3,4,5-tetrahydro-2H-benzo[c]azepin-2-yl)phenyl)-3,3-dimethylbutanamide]	90%
50 to 100%	> 100%	−17.59 mV	–	–	Cc1cc(N2CCCc3cc(O[C@H](C)C(F)(F)F)ccc3C2)cc(C)c1NC(=O)CC(C)(C)C [Compound 032, (R)—N-(2,6-dimethyl-4-(7-((1,1,1-trifluoropropan-2-yl)oxy)-1,3,4,5-tetrahydro-2H-benzo[c]azepin-2-yl)phenyl)-3,3-dimethylbutanamide]	100%
< 50%	50 to 100%	−7.00 mV	−36.06 mV	127.5 ng/g	Cc1cc(N2CCCc3cc(OC(C)C)ccc3C2)cc(C)c1NC(=O)CC(C)(C)C [Compound 003, N-(4-(7-isopropoxy-1,3,4,5-tetrahydro-2H-benzo[c]azepin-2-yl)-2,6-dimethylphenyl)-3,3-dimethylbutanamide]	100%
–	> 100%	–	–	–	Cc1cc(N2CCCc3cc(F)c(F)cc3C2)cc(C)c1NC(=O)CC(C)(C)C [Compound 047, N-(4-(7,8-difluoro-1,3,4,5-tetrahydro-2H-benzo[c]azepin-2-yl)-2,6-dimethylphenyl)-3,3-dimethylbutanamide]	–
–	> 100%	–	–	–	Cc1cc(N2CCCc3cc(OCCOCC(F)(F)F)ccc3C2)cc(C)c1NC(=O)CC(C)(C)C [Compound 056, N-(2,6-dimethyl-4-(7-(2-(2,2,2-trifluoroethoxy)ethoxy)-1,3,4,5-tetrahydro-2H-benzo[c]azepin-2-yl)phenyl)-3,3-dimethylbutanamide]	–
–	50 to 100%	–	–	–	Cc1cc(N2CCCc3cc(F)ccc3C2)c(C)c(C)c1NC(=O)CC(C)(C)C [Compound 030, N-(4-(7-fluoro-1,3,4,5-tetrahydro-2H-benzo[c]azepin-2-yl)-2,3,6-trimethylphenyl)-3,3-dimethylbutanamide]	–
